Source: patent publication US20240117005A1, “NOVEL BICYCLIC PEPTIDES” (THE COUNCIL OF THE QUEENSLAND INSTITUTE OF MEDICAL RESEARCH, priority 2021, published 2024)
No end group written: not given here. *: point of attachment. Myristyl = CCCCCCCCCCCCCC*

What was measured:
CSC = CSC inhibition (Table 10 summary); assay type: cell-based; details: linear peptide derivatives; change stated relative to prototype PDL1-L1
[1] = tested on: metastatic initiating cells (MICs) from stage IV metastatic cancer patients; assay: Pre-clinical treatment of MICs from patient liquid biopsies; assay type: cell-based, human; details: cancer cells from NSCLC, TNBC and melanoma patients
From the text: Mesenchymal MICs were isolated from TNBC, lung cancer and melanoma patient liquid biopsies (scored for RECIST v1.1 for immunotherapy/therapeutic resistance or responsiveness (Complete Response, Partial Response or Progressive Disease) and pre-clinically screened with either vehicle control or the nuclear PDL1 inhibitor, DL-2. Samples were fixed and immunofluorescence microscopy performed on these cells with primary antibodies targeting CSV, PDL1-PTM1 (acetylated nuclear PDL1), ALDH1A1 and ABCB5. Graph represents the CFI values for CSV, NFI for PDL1- PTM1, ALDH1A1 and FI for ABCB5 measured using the ASI Digital pathology automated system to select the nucleus minus background (n≥40 cells/sample/5 patients a group).

MDA-MB-231-Br cells = assay: WST-1 cell proliferation assay, MDA-MB-231-Br; assay type: cell-based, human

Row | Molecule | Potency (CSC inhibition) (CSC) | expression of ABCB5, ALDH1A1 and PDL1-PTM1 in MICs [1] | inhibition of proliferation (MDA-MB-231-Br cells; WST-1) | potency of proliferation inhibition relative to DL-1 (MDA-MB-231-Br cells; higher potency than DL-1)
1 | LTFIFRLRKGRMMDVKK (Myristyl-LTFIFRLRKGRMMDVKK) [PDL1-L1, Myristyl- linear peptide, prototype] | Weak | – | – | –
2 | CCCCCCCCCCCCCC(=O)NC(C)C(=O)NC1CSCc2cc3cc(c2)CSC[C@H](NC(=O)[C@H](Cc2ccccc2)NC(=O)[C@H](C(C)CC)NC(=O)[C@H](Cc2ccccc2)NC(=O)[C@H]([C@@H](C)O)NC(=O)C(CC(C)C)NC1=O)C(=O)N[C@@H](CCCNC(C)=N)C(=O)N[C@@H](CC(C)C)C(=O)N[C@@H](CCCNC(=N)N)C(=O)N[C@@H](CCCCN)C(=O)NCC(=O)N[C@@H](CCCNC(=N)N)C(=O)NC(C(=O)N[C@@H](CCSC)C(=O)NC(CCSC)C(=O)N[C@@H](CC(=O)O)C(=O)NC(C(=O)N[C@@H](CCCCN)C(=O)NC(CCCCN)C(=O)O)C(C)C)CSC3 (mixture of isomers) [DL-2] | – | inhibited expression | able to inhibit proliferation | 2-3 fold
